Blank lines part the entries; values can stand above or below the molecule they belong to.
What was measured:
AMPK α1β1γ1 = target: T1, AMPK α1β1γ1 (Homo sapiens, UniProt P54619+Q13131); assay: AMPK phosphotransferase assay, allosteric activation, cell-free; format: biochemical; details: 1 μM C2, ADP 0–200 μM
T1 construct: purchased Sigma and Signalchem; host or cells: Spodoptera frugiperda (Sf9)
Procedure: Figure 1 The AMP Analog C2 Is a Potent AMPK Activator in Cell-Free Assays with Selectivity for α1 Complexes (A) The structure of the endogenous activator of AMPK, AMP; the AMP mimetic, C2; and the classical AMP mimetic, ZMP, and other AMPK activators are shown. […] (B) Recombinant AMPK complexes (α1β1γ1, α2β1γ1, α1β1γ2, and α1β2γ1) expressed in Spodoptera frugiperda were assayed for allosteric activation by AMP or C2. Results are expressed as the increase in activity relative to controls without ligand and represent the mean ± SD for three independent experiments. (C) Enzymes allosterically regulated by AMP (PFK1 and FBP1) or using AMP as a substrate (AMPD1, AK, and 5′-NT) were assayed in the presence of C2 (≤ 100 μM). Enzymes allosterically regulated by AMP were screened for both agonism and antagonism, the latter in the presence of AMP at ≈ EC50. All enzymes were unaffected by [C2] ≤ 100 μM. Representative data are shown for the effects of AMP and C2 on PFK1 and FBP1 activity. Results are representative of three independent experiments conducted on one enzyme preparation. TEXT PRINTED IN THE PICTURE: (B) C2: α1β1γ1: EC50: 0.011 ± 0.001 μM; α2β1γ1: EC50: 0.015 ± 0.003 μM; α1β1γ2: EC50: 0.024 ± 0.004 μM; α1β2γ1: EC50: 0.015 ± 0.002 μM | (B) AMP: α1β1γ1: EC50: 3.7 ± 0.6 μM; α2β1γ1: EC50: 3.2 ± 0.2 μM; α1β1γ2: EC50: 2.5 ± 0.3 μM; α1β2γ1: EC50: 3.2 ± 0.4 μM | (C) C2: PFK1: EC50: ND; FBP1: IC50: ND | (C) AMP: PFK1: EC50: 33 ± 3 μM; FBP1: IC50: 5 ± 0.2 μM […]
We initially compared the ability of C2 and AMP to activate various recombinant human AMPK complexes, expressed in insect cells, in cell-free assays (Figure 1B). As reported previously using rat liver complexes separated by immunoprecipitation ([Salt et al., 1998]), the allosteric activation of α1 complexes by AMP was less than that of α2 complexes. […] Similar results were obtained with other permutations of β and γ subunits in complex with α2 (data not shown). We also tested the effects of C2 and AMP on recombinant human α1β1γ1 and α2β1γ1 complexes expressed in E. coli and obtained similar results (data not shown).
AMPK phosphotransferase activity was assayed in reactions (50 μl) containing 50 mM HEPES, pH 7.4, 10 mM MgCl2, 0.1 mM EGTA, 1 mM DTT, 0.01% BRIJ-35, 100 μM [γ-^32P]ATP (∼250 CPM⋅pmol^−1) and 200 μM AMARA (AMARAASAAALARRR). Reactions were started by the addition of AMPK (5 mU), incubated for 20 min at 30°C and quenched by spotting onto P81 and immersion in 75 mM H3PO4. Washed filters were dried and [^32P] incorporation determined by Cherenkov counting. AMPK activity in cell extracts was determined by immunoprecipitation with AMPKα1 or AMPKα2 antibodies from 50 μg material, as previously described ([Hunter et al., 2011]). […]

[1] = system: LKB1−/− mouse embryonic fibroblasts; assay: AMPK and ACC phosphorylation in LKB1-null fibroblasts; format: cell-based; details: 1 hr; AICAR 2 mM
Procedure: AICAR (0.5 mM) was included as a positive control. Cell lysates were analyzed using western blotting with the indicated antibodies. (B) AMPKα1 or AMPKα2 complexes were immunoprecipitated from hepatocyte extracts prepared as described in (A) and assayed for kinase activity using 0.2 mM AMARA and 0.1 mM ATP. Results are expressed as the mean Pi incorporated in picomoles per minute-milligram ± SD. (C) Hepatocytes were stimulated with 30 μM C13 for the indicated times prior to harvesting, with AICAR (0.5 mM, 1 hr) as positive control. Lysates were analyzed using western blotting with the indicated antibodies. (D) Mouse hepatocytes were treated with the indicated compounds for 1 hr, and adenine nucleotide ratios were determined using capillary electrophoresis of perchloric acid extracts. […] Lysates were analyzed using western blotting with the indicated antibodies. (F) Wild-type (LKB1^+/+) or LKB1-null (LKB1^−/−) mouse embryonic fibroblasts were incubated with the indicated concentrations of C13 for 1 hr. AICAR (2 mM) was included as a positive control. Lysates were analyzed using western blotting with the indicated antibodies.

β1-KO hepatocytes [2] = assay: Lipogenesis, [3H]acetate incorporation into total lipids; format: cell-based, mouse; details: 100 μM, 4 hr
Procedure: (§1) Figure 7 C13 Activates Both β1 and β2 Complexes in Mouse Hepatocytes (A) Hepatocytes from WT, AMPKβ1^−/−, and AMPKβ2^−/− mice were incubated with the indicated concentrations of C13 for 1 hr. A769662 (100 μM) was included as a positive control. Lysates were analyzed using western blotting with the indicated antibodies. (B) Mouse hepatocytes from the indicated genotypes were treated with the indicated concentrations of C13 and labeled with [^3H]acetate for 4 hr. Lipogenesis was estimated from the incorporation of acetate into total lipids. Results are expressed as the mean acetate incorporated in micromoles per gram-hour ± SD.
Lipid synthesis was determined by labeling adherent cultures of primary hepatocytes with [1-^14C]acetate. After overnight culture, hepatocytes (5 × 10^5) were washed with warm PBS and allowed to rest for 3 hr in fresh M199. Cells were treated with vehicle (0.1% DMSO) or the indicated compounds and labeled with 1 mCi⋅mmol^−1 [1-^14C]acetate for 3 hr. […] Lipogenesis in hepatocytes from AMPKβ1/β2-KO mice was determined in media containing [^3H]acetate (0.2 mCi⋅mmol^−1). After 4 hr labeling, total lipids were extracted using the method of [Bligh and Dyer (1959)], and incorporated [^3H] was determined by scintillation counting. The results are expressed as micromoles acetate incorporated per gram-hour.

β1-KO hepatocytes [3] = assay: AMPK signaling, western blotting; format: cell-based, mouse; details: 1 hr; A769662 100 μM
Procedure: as §1

WT and β2-KO hepatocytes = assay: AMPK signaling, western blotting; format: cell-based, mouse; details: 1 hr; A769662 100 μM
Procedure: as §1

mouse hepatocytes = assay: Adenine nucleotide ratios by capillary electrophoresis; format: cell-based; details: 1 hr; C13 up to 100 μM
Procedure: (§2) Figure 4 The C2 Prodrug, C13, Potently Activates AMPK in Mouse Primary Hepatocytes (A) Isolated mouse hepatocytes were incubated with vehicle or the indicated concentrations of C13 for 1 hr. AICAR (0.5 mM) was included as a positive control. Cell lysates were analyzed using western blotting with the indicated antibodies. (B) AMPKα1 or AMPKα2 complexes were immunoprecipitated from hepatocyte extracts prepared as described in (A) and assayed for kinase activity using 0.2 mM AMARA and 0.1 mM ATP. Results are expressed as the mean Pi incorporated in picomoles per minute-milligram ± SD. (C) Hepatocytes were stimulated with 30 μM C13 for the indicated times prior to harvesting, with AICAR (0.5 mM, 1 hr) as positive control. Lysates were analyzed using western blotting with the indicated antibodies. (D) Mouse hepatocytes were treated with the indicated compounds for 1 hr, and adenine nucleotide ratios were determined using capillary electrophoresis of perchloric acid extracts. (E) Mouse hepatocytes were preincubated with 30 μM STO-609 for 30 min prior to stimulation with 30 μM C13 for 1 hr or with 1 μM ionomycin for 30 min. Lysates were analyzed using western blotting with the indicated antibodies. (F) Wild-type (LKB1^+/+) or LKB1-null (LKB1^−/−) mouse embryonic fibroblasts were incubated with the indicated concentrations of C13 for 1 hr. AICAR (2 mM) was included as a positive control. Lysates were analyzed using western blotting with the indicated antibodies. Results are representative of three independent experiments. […]
Isolation of primary hepatocytes. Hepatocytes were isolated from fasted mice by collagenase digestion (Berry and Friend, 1969). Cells were seeded in M199 containing 100 U/ml penicillin G, 100 µg/ml streptomycin, 0.1 % (w/v) BSA, 10 % (v/v) FBS, 10 nM insulin, 200 nM triiodothyronine and 100 nM dexamethasone. […]
Nucleotide measurements. […] Nucleotides were separated and quantified by capillary electrophoresis using a Beckman P/ACE instrument as previously described (Hawley, et al., 2010).

[4] = system: AMPK signaling in mouse primary hepatocytes; assay: AMPK signaling in primary hepatocytes, western blotting; format: cell-based; details: 30 μM STO-609 for 30 min, 1 μM ionomycin
Procedure: as §2
Isolation of primary hepatocytes. Hepatocytes were isolated from fasted mice by collagenase digestion (Berry and Friend, 1969). Cells were seeded in M199 containing 100 U/ml penicillin G, 100 µg/ml streptomycin, 0.1 % (w/v) BSA, 10 % (v/v) FBS, 10 nM insulin, 200 nM triiodothyronine and 100 nM dexamethasone. Post attachment (3-4 h), cells were cultured overnight in M199 supplemented with antibiotics and 100 nM dexamethasone and used for experiments the following morning.
Western blotting. Cells were stimulated as indicated, rinsed with ice-cold PBS and lysed with 50 mM tris pH 7.5, 1 mM EDTA, 1 mM EGTA, 0.27 M sucrose, 1 % (w/v) Triton X-100, 20 mM glycerol-2-phosphate, 50 mM NaF, 5 mM Na4P2O7, 1 mM Na3VO4, 1 mM DTT, 0.5 mM PMSF, 1 mM benzamidine and 1 µM microcystin-LR. Lysates were clarified at 3000 g for 5 min at 4 °C and normalised using Bradford reagent and BSA as standard. Lysates (20 µg) were denatured in Laemlli buffer, separated on 7.5 % tris-glycine gels and transferred to PVDF in Towbin buffer. Membranes were blocked in 5 % (w/v) milk for 1 h at RT and incubated overnight in the indicated primary antibodies at 4 °C. Membranes were developed using HRP-conjugated antibodies and ECL reagent.
Nucleotide measurements. Cultured hepatocytes were incubated with the indicated compounds and washed with ice-cold 0.9 % (w/v) saline before extraction in 5 % perchloric acid. Precipitated material was removed by centrifugation (13,000 RPM, 3 min) and supernatant neutralised with 1:1 trioctylamine:Freon-113 (Khym, 1975). Nucleotides were separated and quantified by capillary electrophoresis using a Beckman P/ACE instrument as previously described (Hawley, et al., 2010).

T1 sequence (Q13131 whole entry): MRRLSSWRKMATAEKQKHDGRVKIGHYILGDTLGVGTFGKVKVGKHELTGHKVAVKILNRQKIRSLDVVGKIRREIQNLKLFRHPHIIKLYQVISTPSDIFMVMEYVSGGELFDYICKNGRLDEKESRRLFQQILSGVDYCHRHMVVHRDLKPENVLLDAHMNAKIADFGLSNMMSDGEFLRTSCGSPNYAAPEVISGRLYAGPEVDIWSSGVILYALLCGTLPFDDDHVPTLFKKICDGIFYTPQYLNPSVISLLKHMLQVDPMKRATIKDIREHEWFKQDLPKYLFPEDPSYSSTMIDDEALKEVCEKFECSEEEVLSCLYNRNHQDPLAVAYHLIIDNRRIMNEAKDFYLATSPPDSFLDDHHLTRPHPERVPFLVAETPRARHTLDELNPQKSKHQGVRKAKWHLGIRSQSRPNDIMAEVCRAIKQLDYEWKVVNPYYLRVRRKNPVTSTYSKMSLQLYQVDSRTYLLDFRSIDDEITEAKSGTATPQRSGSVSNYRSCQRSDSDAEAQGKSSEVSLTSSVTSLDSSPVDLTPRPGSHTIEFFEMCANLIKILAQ
T1 sequence (Q9Y478 whole entry partner): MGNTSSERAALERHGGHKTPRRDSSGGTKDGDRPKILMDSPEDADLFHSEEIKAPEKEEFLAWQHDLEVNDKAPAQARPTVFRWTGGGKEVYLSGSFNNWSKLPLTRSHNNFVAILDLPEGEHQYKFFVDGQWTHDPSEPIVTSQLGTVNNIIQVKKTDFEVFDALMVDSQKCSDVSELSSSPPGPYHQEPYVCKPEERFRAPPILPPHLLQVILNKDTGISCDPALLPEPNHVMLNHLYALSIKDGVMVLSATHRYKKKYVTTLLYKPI
T1 sequence (P54619 whole entry): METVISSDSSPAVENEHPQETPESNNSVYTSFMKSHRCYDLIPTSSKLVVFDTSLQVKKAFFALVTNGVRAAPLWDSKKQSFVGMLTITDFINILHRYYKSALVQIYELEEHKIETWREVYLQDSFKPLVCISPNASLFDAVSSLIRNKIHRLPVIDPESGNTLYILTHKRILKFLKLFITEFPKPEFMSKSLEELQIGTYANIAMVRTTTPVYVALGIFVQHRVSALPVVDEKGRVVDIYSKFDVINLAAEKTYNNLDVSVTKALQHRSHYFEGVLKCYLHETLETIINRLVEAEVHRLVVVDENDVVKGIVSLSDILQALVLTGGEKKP

- effect on activation by C2 (AMPK α1β1γ1): antagonized
Structure (SMILES): Nc1ncnc2c1ncn2[C@@H]1O[C@H](COP(=O)(O)OP(=O)(O)O)[C@@H](O)[C@H]1O [ADP, reference compound]

Structure (SMILES): NC(=O)c1ncn([C@@H]2O[C@H](CO)[C@@H](O)[C@H]2O)c1N [AICAR, 5-aminoimidazole-4-carboxamide riboside, reference compound]
- compound-induced phosphorylation of AMPK and ACC [1]: abolished

Structure (SMILES): N#Cc1c(O)c2c(-c3ccc(-c4ccccc4O)cc3)csc2[nH]c1=O [Compound A769662, reference compound]
- suppression of lipogenesis (β1-KO hepatocytes [2]): failed to suppress lipogenesis
- stimulation of AMPK (Thr172 phosphorylation) (β1-KO hepatocytes [3]): failed to stimulate
- phosphorylation of Thr172 and ACC, as well as Raptor (WT and β2-KO hepatocytes): robustly stimulated

Structure (SMILES): OO [Compound H2O2]
- ADP:ATP and AMP:ATP ratios (mouse hepatocytes): increased

Structure (SMILES): O=[N+]([O-])c1ccc(O)c([N+](=O)[O-])c1 [DNP, 2,4-dinitrophenol]
- ADP:ATP and AMP:ATP ratios (mouse hepatocytes): increased

Structure (SMILES): O=C(O)c1ccc2c3c1cccc3c(=O)n1c3ccccc3nc21 [STO-609, reference compound]
- phosphorylation of AMPK and ACC by ionomycin after prior incubation [4]: almost completely abolished
